PMC4965148 (PLoS ONE, 2016)
“And” between values parts separate entries of the source, which are not always exact repeats. Equal entries are not always repeated. Where two headings read alike, the source gives them in different places.

Tests used:
α7 nAChR = details: read-out: reported Ki; cited from earlier work
rat α1β1δε nAChR = target: T1, rat α1β1δε nAChR (Rattus norvegicus, UniProt P09660+P25108+P25109+P25110); assay: Ca2+ flux (FLIPR) agonist/antagonist assay; assay type: cell-based
T1 construct: expressed in transfected cells; host or cells: HEK293 (made by Bristol-Myers Squibb)
T1 sequence (P25108 21-457): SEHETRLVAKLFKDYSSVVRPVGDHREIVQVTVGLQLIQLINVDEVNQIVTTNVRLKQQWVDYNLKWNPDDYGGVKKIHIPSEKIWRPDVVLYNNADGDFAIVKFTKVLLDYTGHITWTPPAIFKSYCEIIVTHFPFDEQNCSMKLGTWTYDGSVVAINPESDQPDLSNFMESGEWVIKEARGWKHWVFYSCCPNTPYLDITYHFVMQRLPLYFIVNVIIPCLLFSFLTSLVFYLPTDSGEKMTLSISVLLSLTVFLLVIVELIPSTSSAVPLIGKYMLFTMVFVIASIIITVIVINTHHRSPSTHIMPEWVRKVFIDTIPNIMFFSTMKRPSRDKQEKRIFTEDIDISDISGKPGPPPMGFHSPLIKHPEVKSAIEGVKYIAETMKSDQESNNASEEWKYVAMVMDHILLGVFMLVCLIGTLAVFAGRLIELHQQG
T1 sequence (P25109 24-501): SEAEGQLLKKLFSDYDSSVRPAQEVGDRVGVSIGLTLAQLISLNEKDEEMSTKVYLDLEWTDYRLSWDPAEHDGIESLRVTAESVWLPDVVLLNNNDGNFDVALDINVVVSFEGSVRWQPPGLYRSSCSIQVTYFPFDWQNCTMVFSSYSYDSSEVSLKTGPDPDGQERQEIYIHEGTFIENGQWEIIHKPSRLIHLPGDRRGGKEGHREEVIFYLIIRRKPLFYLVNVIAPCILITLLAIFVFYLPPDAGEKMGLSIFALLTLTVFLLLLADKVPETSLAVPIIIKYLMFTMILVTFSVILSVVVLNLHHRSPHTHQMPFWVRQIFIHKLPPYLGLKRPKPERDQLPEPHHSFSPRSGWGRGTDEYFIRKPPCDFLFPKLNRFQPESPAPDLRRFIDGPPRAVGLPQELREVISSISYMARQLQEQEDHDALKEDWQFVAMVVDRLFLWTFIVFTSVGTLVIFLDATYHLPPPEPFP
T1 sequence (P25110 22-517): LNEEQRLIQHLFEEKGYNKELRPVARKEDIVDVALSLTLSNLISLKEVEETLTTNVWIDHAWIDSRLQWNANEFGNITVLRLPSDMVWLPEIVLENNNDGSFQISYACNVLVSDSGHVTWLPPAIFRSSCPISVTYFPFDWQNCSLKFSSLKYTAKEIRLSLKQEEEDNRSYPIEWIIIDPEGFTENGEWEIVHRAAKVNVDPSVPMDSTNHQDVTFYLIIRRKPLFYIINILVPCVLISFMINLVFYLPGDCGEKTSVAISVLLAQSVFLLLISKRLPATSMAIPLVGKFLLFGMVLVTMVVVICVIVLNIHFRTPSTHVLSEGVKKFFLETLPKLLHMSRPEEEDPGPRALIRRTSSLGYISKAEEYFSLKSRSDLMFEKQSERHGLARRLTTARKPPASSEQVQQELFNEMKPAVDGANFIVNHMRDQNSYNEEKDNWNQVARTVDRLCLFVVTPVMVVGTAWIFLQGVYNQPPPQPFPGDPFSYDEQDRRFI
T1 sequence (P09660 21-494): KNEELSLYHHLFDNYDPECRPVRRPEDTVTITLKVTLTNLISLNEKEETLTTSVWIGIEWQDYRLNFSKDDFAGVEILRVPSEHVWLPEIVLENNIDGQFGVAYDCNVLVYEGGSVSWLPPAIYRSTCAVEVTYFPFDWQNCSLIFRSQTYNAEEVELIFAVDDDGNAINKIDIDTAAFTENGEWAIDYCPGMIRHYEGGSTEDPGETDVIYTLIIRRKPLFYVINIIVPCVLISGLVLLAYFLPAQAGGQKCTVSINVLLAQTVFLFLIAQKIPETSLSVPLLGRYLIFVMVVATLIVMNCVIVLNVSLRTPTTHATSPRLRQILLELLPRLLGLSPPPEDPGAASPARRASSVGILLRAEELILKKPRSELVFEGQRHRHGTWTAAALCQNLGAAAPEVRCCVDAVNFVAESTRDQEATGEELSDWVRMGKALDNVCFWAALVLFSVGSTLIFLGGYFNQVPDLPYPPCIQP

[1] = target: T2, HEK293/human α7 nAChR cells (Homo sapiens, UniProt P36544); assay: Whole cell voltage clamp electrophysiology; assay type: cell-based; details: for Net Charge (Current Area) normalized to 300 µM ACh / Peak Current normalized to 3 mM ACh: individual cells
T2 construct: expressed in transfected cells
T2 sequence (P36544 23-502): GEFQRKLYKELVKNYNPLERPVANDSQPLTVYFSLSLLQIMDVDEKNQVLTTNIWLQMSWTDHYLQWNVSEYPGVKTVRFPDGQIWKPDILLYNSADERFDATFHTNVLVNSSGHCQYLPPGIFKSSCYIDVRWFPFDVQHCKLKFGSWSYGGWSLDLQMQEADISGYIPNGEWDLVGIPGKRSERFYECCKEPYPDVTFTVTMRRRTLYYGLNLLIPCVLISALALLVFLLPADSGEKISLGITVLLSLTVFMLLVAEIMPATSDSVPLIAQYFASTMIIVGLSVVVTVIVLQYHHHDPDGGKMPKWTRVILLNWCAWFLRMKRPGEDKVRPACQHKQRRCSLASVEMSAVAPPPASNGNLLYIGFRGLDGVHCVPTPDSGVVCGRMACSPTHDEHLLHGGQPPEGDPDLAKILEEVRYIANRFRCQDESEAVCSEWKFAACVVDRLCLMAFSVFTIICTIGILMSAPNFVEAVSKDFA
Method: (§1) Whole-cell voltage clamp studies were conducted on HEK293/rat α7 or HEK293/human α7 nAChR cells. […] Atropine (1 μM) was included in the bathing solution. […] Cells were voltage clamped at a holding potential of -90 mV. Using the Dynaflow microfluidic perfusion system (Cellectricon; flow 26 μl/min) responses to a 300 ms application of ACh or α7 nAChR agonists were measured. Currents were filtered at 2 kHz and sampled at 10 kHz using an EPC-9 amplifier and HEKA Pulse/Patchmaster software. […] The peak current amplitude and net charge crossing the membrane (i.e. the area under the current response curve) induced by agonist application were measured using Clampfit (pClamp Suite) and normalized to the maximal response induced by ACh (3 mM ACh for peak current amplitude and 300 μM ACh for net charge).

rat α4β2 nAChR = target: T3, rat α4β2 nAChR (Rattus norvegicus, UniProt P09483+P12390); assay: Ca2+ flux (FLIPR) agonist/antagonist assay; assay type: cell-based
T3 construct: expressed in transfected cells; host or cells: HEK293 (made by Bristol-Myers Squibb)
T3 sequence (P09483 31-630): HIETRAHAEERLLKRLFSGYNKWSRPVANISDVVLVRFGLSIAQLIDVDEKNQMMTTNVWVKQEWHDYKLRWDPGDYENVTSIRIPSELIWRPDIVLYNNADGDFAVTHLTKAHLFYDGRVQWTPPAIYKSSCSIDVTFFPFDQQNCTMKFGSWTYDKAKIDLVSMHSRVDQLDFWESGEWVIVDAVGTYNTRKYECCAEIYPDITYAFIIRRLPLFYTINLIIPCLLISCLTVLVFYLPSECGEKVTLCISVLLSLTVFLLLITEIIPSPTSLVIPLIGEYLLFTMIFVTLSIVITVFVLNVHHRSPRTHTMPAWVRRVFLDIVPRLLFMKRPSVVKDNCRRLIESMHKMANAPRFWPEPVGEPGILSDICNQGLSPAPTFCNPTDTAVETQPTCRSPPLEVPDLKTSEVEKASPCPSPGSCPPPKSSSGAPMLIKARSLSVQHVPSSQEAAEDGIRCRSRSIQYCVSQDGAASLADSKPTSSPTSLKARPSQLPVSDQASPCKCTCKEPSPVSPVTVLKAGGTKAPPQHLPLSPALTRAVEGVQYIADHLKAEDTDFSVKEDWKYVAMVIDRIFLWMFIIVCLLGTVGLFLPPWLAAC
T3 sequence (P12390 25-500): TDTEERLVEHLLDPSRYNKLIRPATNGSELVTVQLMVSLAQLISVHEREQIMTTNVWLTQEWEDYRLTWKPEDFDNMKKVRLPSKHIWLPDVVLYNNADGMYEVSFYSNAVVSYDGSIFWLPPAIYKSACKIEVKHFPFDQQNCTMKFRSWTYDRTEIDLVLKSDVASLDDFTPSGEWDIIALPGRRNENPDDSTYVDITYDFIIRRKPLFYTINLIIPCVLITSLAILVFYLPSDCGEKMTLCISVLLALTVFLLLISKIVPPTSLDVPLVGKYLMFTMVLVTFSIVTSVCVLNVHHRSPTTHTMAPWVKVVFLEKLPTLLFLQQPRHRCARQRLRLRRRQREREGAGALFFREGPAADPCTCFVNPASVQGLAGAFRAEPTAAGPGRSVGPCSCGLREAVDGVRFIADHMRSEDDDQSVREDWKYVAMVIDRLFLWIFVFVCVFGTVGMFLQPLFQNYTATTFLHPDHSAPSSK

rat α3β4 nAChR = target: T4, rat α3β4 nAChR (Rattus norvegicus, UniProt P04757+P12392); assay: Ca2+ flux (FLIPR) agonist/antagonist assay; assay type: cell-based
T4 construct: expressed in transfected cells; host or cells: HEK293 (made by Bristol-Myers Squibb)
T4 sequence (P04757 26-499): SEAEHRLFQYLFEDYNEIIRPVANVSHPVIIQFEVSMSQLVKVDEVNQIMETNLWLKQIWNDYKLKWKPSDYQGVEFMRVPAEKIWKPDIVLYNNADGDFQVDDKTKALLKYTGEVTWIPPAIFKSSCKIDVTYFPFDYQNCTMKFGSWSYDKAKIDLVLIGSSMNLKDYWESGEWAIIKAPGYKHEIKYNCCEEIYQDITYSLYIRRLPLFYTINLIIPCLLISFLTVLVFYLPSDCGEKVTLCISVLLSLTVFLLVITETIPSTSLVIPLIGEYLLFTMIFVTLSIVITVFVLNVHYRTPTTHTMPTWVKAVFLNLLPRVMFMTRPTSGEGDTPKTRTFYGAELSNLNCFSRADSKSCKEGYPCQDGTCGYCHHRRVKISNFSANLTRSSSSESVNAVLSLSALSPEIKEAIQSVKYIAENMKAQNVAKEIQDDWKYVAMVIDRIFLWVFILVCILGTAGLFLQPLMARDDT
T4 sequence (P12392 21-495): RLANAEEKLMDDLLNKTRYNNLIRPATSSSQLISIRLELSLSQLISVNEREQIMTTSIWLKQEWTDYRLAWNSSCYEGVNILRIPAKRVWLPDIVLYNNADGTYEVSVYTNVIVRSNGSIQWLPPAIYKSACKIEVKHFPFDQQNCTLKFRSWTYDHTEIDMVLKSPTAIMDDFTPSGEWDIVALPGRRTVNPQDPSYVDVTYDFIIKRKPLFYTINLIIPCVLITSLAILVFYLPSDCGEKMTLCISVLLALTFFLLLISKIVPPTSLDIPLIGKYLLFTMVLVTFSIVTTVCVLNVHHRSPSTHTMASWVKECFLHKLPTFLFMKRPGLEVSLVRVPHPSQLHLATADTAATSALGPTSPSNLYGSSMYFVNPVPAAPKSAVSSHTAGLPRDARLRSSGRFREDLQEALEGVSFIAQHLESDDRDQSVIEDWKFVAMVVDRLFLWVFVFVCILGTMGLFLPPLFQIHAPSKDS

HEK293/Human 5-HT3A = target: T5, HEK293/Human 5-HT3A (Homo sapiens, UniProt P46098); assay: Ca2+ flux (FLIPR) 5-HT3A antagonist assay; assay type: cell-based
T5 construct: expressed in transfected cells; host or cells: HEK293 (made by Bristol-Myers Squibb)
T5 sequence (P46098 24-478): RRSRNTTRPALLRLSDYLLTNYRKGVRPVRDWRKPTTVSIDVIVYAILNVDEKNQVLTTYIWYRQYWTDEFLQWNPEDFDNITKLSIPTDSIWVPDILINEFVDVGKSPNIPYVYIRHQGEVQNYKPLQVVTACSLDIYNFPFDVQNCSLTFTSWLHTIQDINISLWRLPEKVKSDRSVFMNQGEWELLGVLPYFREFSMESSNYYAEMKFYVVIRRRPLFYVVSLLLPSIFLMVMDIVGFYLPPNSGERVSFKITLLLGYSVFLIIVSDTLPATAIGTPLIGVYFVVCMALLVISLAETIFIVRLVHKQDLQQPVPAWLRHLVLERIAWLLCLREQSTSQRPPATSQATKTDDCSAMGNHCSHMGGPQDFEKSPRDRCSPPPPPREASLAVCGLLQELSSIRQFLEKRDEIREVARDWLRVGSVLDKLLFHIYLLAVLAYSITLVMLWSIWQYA
Method: Functional activity was examined using Ca^2+-sensitive, dye-based, microfluorometric assays read on the FLIPR Tetra plate reader platform (Molecular Devices, CA, USA). Cells were plated in 384-well black, clear-bottomed Greiner poly-D-lysine coated plates at a density of ~25 K cells/well and incubated at 29°C for 48 h. Prior to assay, media contents were removed and cells incubated in assay buffer containing 5μM final Fluo-4 dye for 90 min. For nAChR assays, the dye-loading buffer was HBSS (#14175 Life Technologies) supplemented with 20 mM HEPES, 0.5 mM CaCl2, 1 mM MgCl2 and 10 μM atropine (final concentration). Test compounds were solubilized in DMSO and serially diluted in NUNC 384-well plates prior to addition of assay buffer (5.3 mM KCl + 140 mM NaCl + 20 mM Hepes + 25 mM CaCl2 + 1 mM MgCl2 + 10 μM atropine final concentration). Compounds diluted in assay buffer were added to the assay plate by the FLIPR and read for approximately 2 min. […] For 5-HT3A antagonist studies, the dye loading and compound diluent buffer was HBSS (#14025 Life Technologies) supplemented with 20 mM HEPES (final concentration) and the concentration of 5-HT used in the assay was 2 μM. Offline transformation of concentration response data was done using a 4 parameter logistic fit using a Bristol-Myers Squibb proprietary informatics software suite.

HEK293/Human α7 nAChR = HEK293/Human α7 nAChR (Homo sapiens, UniProt P36544); assay: [3H]-A-585539 filtration binding; parameters: expressed in transfected cells
HEK293/Human α7 nAChR, sequence (P36544 23-502): as the sequence (P36544 23-502) above

human 5-HT3A receptors = target: T6, human 5-HT3A receptors (Homo sapiens, UniProt P46098); assay: biochemical
T6 sequence (P46098 24-478): T5 sequence (P46098 24-478)

[2] = target: T7, HEK293/rat α7 nAChR cells (Rattus norvegicus, UniProt Q05941); assay: Whole cell voltage clamp electrophysiology; assay type: cell-based; details: for Net Charge (Current Area) normalized to 300 µM ACh / Peak Current normalized to 3 mM ACh: individual cells
T7 construct: expressed in transfected cells
T7 sequence (Q05941 23-502): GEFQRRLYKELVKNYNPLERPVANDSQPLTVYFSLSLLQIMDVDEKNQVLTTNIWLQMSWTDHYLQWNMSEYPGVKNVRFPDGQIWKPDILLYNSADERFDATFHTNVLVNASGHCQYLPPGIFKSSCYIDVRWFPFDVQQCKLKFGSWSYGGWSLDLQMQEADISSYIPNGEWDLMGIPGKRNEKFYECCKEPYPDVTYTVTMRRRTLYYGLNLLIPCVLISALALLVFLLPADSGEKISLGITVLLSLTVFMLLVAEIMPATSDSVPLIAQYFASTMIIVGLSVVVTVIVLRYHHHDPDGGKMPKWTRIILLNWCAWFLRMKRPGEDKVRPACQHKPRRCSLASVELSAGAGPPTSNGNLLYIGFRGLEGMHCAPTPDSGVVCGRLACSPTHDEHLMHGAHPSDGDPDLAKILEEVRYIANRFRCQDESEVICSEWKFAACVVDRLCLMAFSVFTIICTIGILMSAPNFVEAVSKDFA
Method: as §1

[3] = FLIPR agonist mode, read-out: agonist EC50 at α1β1δε nAChR
[4] = FLIPR agonist mode, read-out: agonist EC50 at α4β2 nAChR
[5] = FLIPR agonist mode, read-out: agonist EC50 at α3β4 nAChR
[6] = Ca2+ flux (FLIPR), antagonism of 2 μM 5-HT, read-out: HEK293/Human 5-HT3A Mean ± SD IC50
[7] = FLIPR, individual determinations, read-out: Human 5-HT3A IC50 values (individual)

For O=C(N[C@H]1CN2CCC1CC2)c1cc2cccc(Cl)c2s1 [EVP-6124, (R)-7-chloro-N-(quinuclidin-3-yl)benzo[b]thiophene-2-carboxamide, reference compound], the Ki (α7 nAChR) is given as 0.01 µM, the EC50 (rat α1β1δε nAChR; [3]) is given as > 100 µM and the “Net Charge (Current Area) normalized to 300 µM ACh” value ([1]; 0.03 µM) is given as 0.1633 and 0.2064 and 0.1153 and 0.1342. The “Peak Current normalized to 3 mM ACh” value ([1]; 0.03 µM) was 0.0231 and 0.03032 and 0.02328 and 0.01316, the “Net Charge (Current Area) normalized to 300 µM ACh” value ([1]; EVP-6124 series 0.1 µM) was 0.8405 and 1.081 and 0.8479 and 0.8723 and the “Peak Current normalized to 3 mM ACh” value ([1]; EVP-6124 series 0.1 µM) was 0.0485 and 0.06704 and 0.0971 and 0.0413. For the same molecule, the “Net Charge (Current Area) normalized to 300 µM ACh” value ([1]; EVP-6124 series 0.3 µM) was 1.201 and 1.302 and 1.445 and 1.418, the “Peak Current normalized to 3 mM ACh” value ([1]; EVP-6124 series 0.3 µM) was 0.1072 and 0.154 and 0.07666 and 0.07157 and the “Net Charge (Current Area) normalized to 300 µM ACh” value ([1]; EVP-6124 series 1 µM) was 1.414 and 1.499 and 1.608 and 1.442. For the same molecule, the “Peak Current normalized to 3 mM ACh” value ([1]; EVP-6124 series 1 µM) was 0.127 and 0.1447 and 0.2547 and 0.1421, the “Net Charge (Current Area) normalized to 300 µM ACh” value ([1]; EVP-6124 series 3 µM) was 1.22 and 1.197 and 1.304 and 1.07 and the “Peak Current normalized to 3 mM ACh” value ([1]; EVP-6124 series 3 µM) was 0.1877 and 0.2441 and 0.3832 and 0.2558. The “Net Charge (Current Area) normalized to 300 µM ACh” value ([1]; EVP-6124 series 10 µM) was 0.349 and 0.4055 and 0.3939 and 0.327, the “Peak Current normalized to 3 mM ACh” value ([1]; EVP-6124 series 10 µM) was 0.2438 and 0.2654 and 0.4627 and 0.3034 and the “Mean ± SEM Net Charge Ymax” value ([1]; Human, normalized to 300 μM ACh) was 1.36 ± 0.09. For the same molecule, the “Mean ± SEM Peak Current Ymaxobs @ 10 μM” value ([1]; Human, normalized to 3 mM ACh) was 0.32 ± 0.05, the EC50 ([1]; Human, read-out: Mean ± SEM Net Charge EC50) was 0.07 ± 0.02 µM and the EC50 (rat α4β2 nAChR; [4]) was > 100 µM. For the same molecule, the EC50 (rat α3β4 nAChR; [5]) was > 100 µM, the IC50 (HEK293/Human 5-HT3A; [6]) was 0.004 ± 0.0021 µM and the IC50 (HEK293/Human 5-HT3A; [7]) was 0.006 µM and 0.003 µM and 0.001 µM and 0.005 µM. For the same molecule, the Ki (HEK293/Human α7 nAChR; displacement of [3H]-A-585539, read-out: HEK293/Human α7 nAChR Mean ± SD Ki) was 0.003 ± 0.00113 µM, the Ki (HEK293/Human α7 nAChR; individual determinations, read-out: HEK293/human α7 nAChR Ki (individual)) was 0.0022 µM and 0.0038 µM and the Ki (human 5-HT3A receptors) was 0.0025 µM.
For Cl.O=C(N[C@H]1CN2CCC1CC2)c1ccc(Cl)cc1 [PNU-282987, N-(3R)-1-azabicyclo[2.2.2]oct-3-yl-4-chloro-benzamide hydrochloride], the EC50 (rat α1β1δε nAChR; [3]) was > 100 µM, the EC50 (rat α4β2 nAChR; [4]) was > 100 µM and the EC50 (rat α3β4 nAChR; [5]) was > 100 µM. For the same molecule, the “Ratio (5-HT3A IC50 / α7 nAChR EC50; functional selectivity)” value (HEK293/Human 5-HT3A; FLIPR) was 264, the IC50 (HEK293/Human 5-HT3A; HEK293/Human 5-HT3A Mean ± SD IC50, Ca2+ flux (FLIPR), antagonism of 2 μM 5-HT) was 24.9 µM and the IC50 (HEK293/Human 5-HT3A; Human 5-HT3A IC50 values (individual), FLIPR, individual determinations) was 32.1 µM and 23.6 µM and 6.35 µM and 38.4 µM and 24.1 µM.
In the case of O=C(N[C@@H]1C2CCN(CC2)[C@H]1Cc1cccnc1)c1cc2ccccc2o1 [TC-5619, (2S,3R)-N-[2-(pyridin-3-ylmethyl)-1-azabicyclo[2.2.2]oct-3-yl]benzo[b]furan-2-carboxamide], the Ki (α7 nAChR) is listed as 0.001 µM, the EC50 (rat α1β1δε nAChR) is listed as > 100 µM and the EC50 (rat α4β2 nAChR) is listed as > 100 µM. The EC50 (rat α3β4 nAChR) was > 100 µM, the IC50 (HEK293/Human 5-HT3A; [6]) was > 100 µM and the IC50 (HEK293/Human 5-HT3A; [7]) was > 100 µM. The “Net Charge (Current Area) normalized to 300 µM ACh” value ([2]; 0.001 µM) was 0.01291 and 0.1795 and 0.008199, the “Peak Current normalized to 3 mM ACh” value ([2]; 0.001 µM) was 0.003543 and 0.01162 and 0.003662 and the “Net Charge (Current Area) normalized to 300 µM ACh” value ([2]; 0.003 µM) was -0.00013 and 0.03241 and 0.001885. The “Peak Current normalized to 3 mM ACh” value ([2]; 0.003 µM) was 0.003116 and 0.008701 and 0.005453, the “Net Charge (Current Area) normalized to 300 µM ACh” value ([2]; 0.01 µM) was 0.000016 and 0.002188 and -0.00959 and the “Peak Current normalized to 3 mM ACh” value ([2]; 0.01 µM) was 0.006073 and 0.007536 and 0.009875. For the same molecule, the “Net Charge (Current Area) normalized to 300 µM ACh” value ([2]; 0.03 µM) was 0.1492 and 0.1468 and 0.2028, the “Peak Current normalized to 3 mM ACh” value ([2]; 0.03 µM) was 0.02004 and 0.01567 and 0.02139 and the “Mean ± SEM Net Charge Ymax” value ([2]; Rat, normalized to 300 μM ACh) was 1.26 ± 0.02. For the same molecule, the “Mean ± SEM Peak Current Ymaxobs @ 10 μM” value ([2]; Rat, normalized to 3 mM ACh) was 0.55 ± 0.06, the “Net Charge (Current Area) normalized to 300 µM ACh” value ([2]; TC-5619 series 0.1 µM) was 0.6879 and 0.7239 and 0.8481 and the “Peak Current normalized to 3 mM ACh” value ([2]; TC-5619 series 0.1 µM) was 0.05408 and 0.04485 and 0.05183. For the same molecule, the “Net Charge (Current Area) normalized to 300 µM ACh” value ([2]; TC-5619 series 0.3 µM) was 1.093 and 1.107 and 1.105, the “Peak Current normalized to 3 mM ACh” value ([2]; TC-5619 series 0.3 µM) was 0.1599 and 0.1241 and 0.1149 and the “Net Charge (Current Area) normalized to 300 µM ACh” value ([2]; TC-5619 series 1 µM) was 1.242 and 1.143 and 1.297. For the same molecule, the “Peak Current normalized to 3 mM ACh” value ([2]; TC-5619 series 1 µM) was 0.276 and 0.2576 and 0.2679, the “Net Charge (Current Area) normalized to 300 µM ACh” value ([2]; TC-5619 series 3 µM) was 1.234 and 1.271 and 1.312 and the “Peak Current normalized to 3 mM ACh” value ([2]; TC-5619 series 3 µM) was 0.4166 and 0.4279 and 0.4555. The “Net Charge (Current Area) normalized to 300 µM ACh” value ([2]; TC-5619 series 10 µM) was 1.226 and 1.317 and 1.306, the “Peak Current normalized to 3 mM ACh” value ([2]; TC-5619 series 10 µM) was 0.4847 and 0.4851 and 0.6732 and the Ki (human 5-HT3A receptors; human 5-HT3A Ki, displacement of [3H]-granisetron) was > 10 µM.
